# Data reported in US20200068890A1 (Person to Whom the Inventor is Obligated to Assign, priority 2017, published 2020).
# Like-named read-outs stand apart in the source and are kept apart here.
# Legend:
# [1] = system: Pseudomonas aeruginosa PA01; test: Broth microdilution MIC; type: cell-based
# Protocol: (§1) Assays were carried out by a broth microdilution method using a 96-well plate according to guidelines defined by the European Committee on Antimicrobial Susceptibility Testing as described here. Overnight cultures of strains were grown in tryptic soy broth (TSB) at 37° C. The overnight cultures were diluted to a concentration of 1×10^6 bacteria/ml (OD600=0.01) in TSB media. To each well on 96 well plates, 100 μl of bacterially infected media at a concentration of 1×10^6/ml and compounds at various concentrations were added. An uninfected control (i.e. no bacteria) was also included. The plates were incubated at 37° C. wrapped in parafilm for 20 hrs. The growth was assessed by measuring the absorbance at 600 nm. The minimum inhibitory concentration (MIC) was determined to be the lowest concentration of compound that inhibits visible bacterial growth.
# [2] = system: Pseudomonas aeruginosa 13437; test: Broth microdilution MIC; type: cell-based
# Protocol: as §1
# [3] = system: MSSA 9144; test: Broth microdilution MIC; type: cell-based; settings: Staphylococcus aureus
# Protocol: as §1
# [4] = system: Enterococcus faecalis 775; test: Broth microdilution MIC; type: cell-based
# Protocol: as §1
# [5] = system: Klebsiella pneumoniae M6; test: Broth microdilution MIC; type: cell-based
# Protocol: as §1
# [6] = system: Acinetobacter baumannii AYE; test: Broth microdilution MIC; type: cell-based
# Protocol: as §1
# [7] = system: Escherichia coli NCTC12923; test: Broth microdilution MIC; type: cell-based
# Protocol: as §1
# [8] = system: EMRSA-15; test: Broth microdilution MIC; type: cell-based
# Protocol: as §1
# [9] = system: Enterococcus faecium 12204; test: Broth microdilution MIC; type: cell-based
# Protocol: as §1
# [10] = system: Klebsiella pneumoniae 13368; test: Broth microdilution MIC; type: cell-based
# Protocol: as §1
# [11] = system: Enterococcus faecalis 12201; test: Broth microdilution MIC; type: cell-based
# Protocol: as §1
# [12] = system: EMRSA-16; test: Broth microdilution MIC; type: cell-based
# Protocol: as §1
# [13] = system: human kidney cells (HEK293); test: MTT viability assay; settings: for % Viability Remaining 1 / % Viability Remaining 2 / % Viability Remaining 3: 48 hrs
# Protocol: (§2) Cells were harvested and resuspended in growth media (5-10 ml) to count. Cells were diluted to the appropriate concentration (5×10^3), and seeded into 96-well plates as follows: (a) 50 μl of cells per well, (b) 100 μl of growth media in the Blank wells, (c) 100 μl PBS in outer wells (to prevent dehydration of media from the cells). Cells were incubated overnight at 37° C. (5% CO2).
# (§3) Compounds were prepared as serial dilutions in growth media. Each treatment concentration was performed in triplicate. 50 μl/well of prepared compound was added to cells.
# (§4) A no treatment triplicate (100% viability) was also included by adding 50 μl of growth media to cells. Plates were returned to the incubator for 48 hrs.
# (§5) MTT powder in 1×PBS was prepared at 5 mg/ml and filter sterilised. MTT was added to serum-free media to a final concentration of 1 mg/ml. 100 μl of the MTT solution (1 mg/ml) was added to each well, including 0 μM and blank wells. Plates were incubated at 37° C. in incubator for 3 hrs. Following incubation, the media was removed from wells without disrupting the purple crystals formed. 100 μl of DMSO was added to each well using a multichannel pipette. The plates were shaken on the plate shaker until all the crystals have dissolved. The absorbance was measured at 570 nm using a plate reader. The data was analysed using Microsoft Excel. For each treatment concentration the average was calculated, the blank was subtracted and the cell viability was determined as a percentage of the no treatment control (DMSO vehicle control).
# [14] = system: human liver cells (HepG2); test: MTT viability assay; settings: for % viability 1 / % viability 2 / % viability 3: 48 hrs
# Protocol: as §2, §3, §4, §5
structure (smiles),measurement,setting,value
"COc1ccccc1/C=C1\SC(=O)N(CC(=O)O)C1=O [Compound 3, (Z)-2-(5-(2-Methoxybenzylidene)-2,4-dioxothiazolidin-3-yl)acetic Acid]",MIC,"[1]; Pseudomonas aeruginosa PA01, replicate 1, read-out: MIC #1",> 64 µg/mL
same,MIC,"[1]; Pseudomonas aeruginosa PA01, replicate 2, read-out: MIC #2",> 64 µg/mL
same,MIC,"[1]; Pseudomonas aeruginosa PA01, replicate 3, read-out: MIC #3",> 64 µg/mL
same,MIC,"[2]; Pseudomonas aeruginosa 13437, replicate 1, read-out: MIC #1",> 64 µg/mL
same,MIC,"[2]; Pseudomonas aeruginosa 13437, replicate 2, read-out: MIC #2",> 64 µg/mL
same,MIC,"[2]; Pseudomonas aeruginosa 13437, replicate 3, read-out: MIC #3",> 64 µg/mL
same,MIC,"[3]; MSSA 9144, replicate 1, read-out: MIC #1",> 64 µg/mL
same,MIC,"[3]; MSSA 9144, replicate 2, read-out: MIC #2",> 64 µg/mL
same,MIC,"[3]; MSSA 9144, replicate 3, read-out: MIC #3",> 64 µg/mL
same,MIC,"[4]; Enterococcus faecalis 775, replicate 1, read-out: MIC #1",> 64 µg/mL
same,MIC,"[4]; Enterococcus faecalis 775, replicate 2, read-out: MIC #2",> 64 µg/mL
same,MIC,"[4]; Enterococcus faecalis 775, replicate 3, read-out: MIC #3",> 64 µg/mL
same,MIC,"[5]; Klebsiella pneumoniae M6, replicate 1, read-out: MIC #1",> 64 µg/mL
same,MIC,"[5]; Klebsiella pneumoniae M6, replicate 2, read-out: MIC #2",> 64 µg/mL
same,MIC,"[5]; Klebsiella pneumoniae M6, replicate 3, read-out: MIC #3",> 64 µg/mL
same,MIC,"[6]; replicate 1, read-out: MIC #1",> 64 µg/mL
same,MIC,"[6]; replicate 2, read-out: MIC #2",> 64 µg/mL
same,MIC,"[6]; replicate 3, read-out: MIC #3",> 64 µg/mL
same,MIC,"[7]; Escherichia coli NCTC12923, replicate 1, read-out: MIC #1",> 64 µg/mL
same,MIC,"[7]; Escherichia coli NCTC12923, replicate 2, read-out: MIC #2",> 64 µg/mL
same,MIC,"[7]; Escherichia coli NCTC12923, replicate 3, read-out: MIC #3",> 64 µg/mL
same,MIC,"[8]; EMRSA-15, replicate 1, read-out: MIC #1",> 64 µg/mL
same,MIC,"[8]; EMRSA-15, replicate 2, read-out: MIC #2",> 64 µg/mL
same,MIC,"[8]; EMRSA-15, replicate 3, read-out: MIC #3",> 64 µg/mL
same,MIC,"[9]; Enterococcus faecium 12204, replicate 1, read-out: MIC #1",> 64 µg/mL
same,MIC,"[9]; Enterococcus faecium 12204, replicate 2, read-out: MIC #2",> 64 µg/mL
same,MIC,"[9]; Enterococcus faecium 12204, replicate 3, read-out: MIC #3",> 64 µg/mL
same,MIC,"[10]; Klebsiella pneumoniae 13368, replicate 1, read-out: MIC #1",> 64 µg/mL
same,MIC,"[10]; Klebsiella pneumoniae 13368, replicate 2, read-out: MIC #2",> 64 µg/mL
same,MIC,"[10]; Klebsiella pneumoniae 13368, replicate 3, read-out: MIC #3",> 64 µg/mL
same,MIC,"[11]; Enterococcus faecalis 12201, replicate 1, read-out: MIC #1",> 64 µg/mL
same,MIC,"[11]; Enterococcus faecalis 12201, replicate 2, read-out: MIC #2",> 64 µg/mL
same,MIC,"[11]; Enterococcus faecalis 12201, replicate 3, read-out: MIC #3",> 64 µg/mL
same,MIC,"[12]; EMRSA-16, replicate 1, read-out: MIC #1",> 64 µg/mL
same,MIC,"[12]; EMRSA-16, replicate 2, read-out: MIC #2",> 64 µg/mL
same,MIC,"[12]; EMRSA-16, replicate 3, read-out: MIC #3",> 64 µg/mL
same,% Viability Remaining 1,"[13]; HEK293, 12.5 μM",73.4%
same,% Viability Remaining 2,"[13]; HEK293, 12.5 μM",104%
same,% Viability Remaining 3,"[13]; HEK293, 12.5 μM",99.0%
same,% Viability Remaining 1,"[13]; HEK293, 25 μM",100%
same,% Viability Remaining 2,"[13]; HEK293, 25 μM",86.3%
same,% Viability Remaining 3,"[13]; HEK293, 25 μM",83.8%
same,% Viability Remaining 1,"[13]; HEK293, 50 μM",78.5%
same,% Viability Remaining 2,"[13]; HEK293, 50 μM",80.4%
same,% Viability Remaining 3,"[13]; HEK293, 50 μM",92.2%
same,% Viability Remaining 1,"[13]; HEK293, 100 μM",84.2%
same,% Viability Remaining 2,"[13]; HEK293, 100 μM",93.0%
same,% Viability Remaining 3,"[13]; HEK293, 100 μM",91.6%
same,% Viability Remaining 1,"[13]; HEK293, 200 μM",82.5%
same,% Viability Remaining 2,"[13]; HEK293, 200 μM",89.8%
same,% Viability Remaining 3,"[13]; HEK293, 200 μM",94.3%
same,% Viability Remaining 1,"[13]; HEK293, 400 μM",72.3%
same,% Viability Remaining 2,"[13]; HEK293, 400 μM",106%
same,% Viability Remaining 3,"[13]; HEK293, 400 μM",85.6%
same,toxicity to HEK293 cells (in words),"[13]; HEK293, MTT, up to 400 μM (Defensin 100 μM)",effectively nontoxic
same,% viability 1,"[14]; HepG2, 12.5 μM",110%
same,% viability 2,"[14]; HepG2, 12.5 μM",104%
same,% viability 3,"[14]; HepG2, 12.5 μM",92.2%
same,% viability 1,"[14]; HepG2, 25 μM",80.2%
same,% viability 2,"[14]; HepG2, 25 μM",86.4%
same,% viability 3,"[14]; HepG2, 25 μM",91.4%
same,% viability 1,"[14]; HepG2, 50 μM",106.4%
same,% viability 2,"[14]; HepG2, 50 μM",89.9%
same,% viability 3,"[14]; HepG2, 50 μM",98.7%
same,% viability 1,"[14]; HepG2, 100 μM",80.2%
same,% viability 2,"[14]; HepG2, 100 μM",89.3%
same,% viability 3,"[14]; HepG2, 100 μM",82.2%
same,% viability 1,"[14]; HepG2, 200 μM",84.2%
same,% viability 2,"[14]; HepG2, 200 μM",96.5%
same,% viability 3,"[14]; HepG2, 200 μM",92.9%
same,% viability 1,"[14]; HepG2, 400 μM",76.2%
same,% viability 2,"[14]; HepG2, 400 μM",87.9%
same,% viability 3,"[14]; HepG2, 400 μM",87.5%
same,toxicity to HepG2 cells (in words),"[14]; HepG2, MTT, up to 400 μM (Defensin 100 μM)",effectively nontoxic
